{"source": "patent US20170007633A1", "about": "“TREATMENT OF NEURODEGENERATIVE AND NEURODEVELOPMENTAL DISEASES BY INHIBITION OF THE a2-Na/K ATPase/a-ADDUCIN COMPLEX” (PRESIDENT AND FELLOWS OF HARVARD COLLEGE, priority 2014, published 2017)", "key": {"SOD1^G93A mice": {"tested_on": "SOD1^G93A mice", "assay_type": "in vivo", "description": "Transgenic mice overexpressing mutant G93A human superoxide dismutase 1 (Jackson Laboratory stock#002726). α2-Na/K ATPase null heterozygous (provided by Dr. Jerry B. Lingrel) and C57BL6 (Charles River) were used. All analysis was done with littermate mice derived from SOD1^G93A heterozygous mating with non-transgenic wild type and heterozygous α2-Na/K ATPase mice. All animal experiments were conducted under the institutional guidelines and were approved by the Institutional Animal Care and Use Committee (IACUC).\nAll morphological studies were performed as described in Chandra et al., Cell 123:383-396 (2005), which is incorporated by reference. Briefly, mice were deeply anesthetized and perfused with 4% paraformaldehyde in phosphate buffer. Spinal cords were post-fixed in the same fixative for 4 hours and processed for cryoprotective embedding. Immunohistochemistry analyses were carried out on 30 um cryosections from spinal cords with the indicated antibodies. […] For lentiviral mediated RNAi a minimum of 20 sections were quantified for surviving motor neurons in the injected and non-injected ventral horns from Nissl stained and immunofluorescence labeled sections."}, "[1]": {"tested_on": "motor neurons co-cultured with SOD1^G93A astrocytes (Na/K ATPase)", "test": "co-culture of SOD1^G93A or control astrocytes with primary motor neurons, pharmacological inhibition of Na/K ATPase", "conditions": "for impairment of dendrite morphology in motor neurons induced by SOD1^G93A astrocytes / motor neuron cell death induced by SOD1^G93A astrocytes: final concentration of 1 μm; for motor neuron cell death induced by SOD1^G93A astrocytes: vehicle 56%, 7 days of co-culture", "description": "Monolayer astrocytes culture from P2 SOD1^G93A and non-transgenic littermate mice were prepared as described in Di Giorgio et al., Nat. Neurosci. 10:608-614 (2007) and Nagai et al., Nat. Neurosci. 10:615-622 (2007), each of which is incorporated by reference. Astrocytes were plated in DMEM (GIBCO) supplemented with 10% FBS containing 100 U/ml penicillin and […] for two weeks or until confluent. Once confluent, cells were replated onto glass cover slips precoated with poly-D-lysine at a density of 40,000 cells/well in a 24-well dish. For RNAi experiment astrocyte cultures were transfected with RNAi or control U6 plasmid using Lipofectamine 2000 (Invitrogen) according to the guidelines of the manufacturer four days prior to co-culturing with motor neurons.\nSpinal motor neuronal cultures from E12.5 wild-type rodents were performed as described in Gingras et al., J. Neurosci. Methods 163:11-118 (2007), which is hereby incorporated by reference. Cultures were plated astrocyte monolayers at 12,000 cells/well in Neurobasal-A medium (GIBCO) supplemented with 2% B-27 serum free supplement and 0.5 mM glutamine; DMEM/F12 (3:1, v/v ratio) with a cocktail of trophic factors composed of 0.5 ng/ml glia-derived neurotrophic factor, 1 ng/ml brain-derived neurotrophic factor and 10 ng/ml ciliary neurotrophic factor (trophic factor cocktail, R&D Systems).\nMotor neurons were fixed after 7 days of co-cultures with astrocytes and immunostained with Islet1, MAP2 and Hoechst 33258 and subjected to cell survival. Approximately 150 cells were counted per cover slip. For pharmacological inhibition of Na/K ATPase in co-cultures. […] For motor neuron morphology images were taken using a NIKON eclipse TE2000 epifluorescence microscope using a digital CCD camera (DIAGNOSTIC instruments) and imported into the SPOT imaging software. Approximately 40 cells were analyzed per cover slip."}}, "note": "“Also recorded” adds a separate entry of the source.", "data": [{"substance": "digoxin", "values": [{"measurement": "motor neurons per ventral horn section", "setting": "SOD1^G93A mice; 1 mg/kg intraperitoneal on a 48-hour cycle from 80 days, toward end stage (130±5 days), vehicle 4.66±0.40", "result": "7.20±0.21"}, {"measurement": "motor neuron survival / degeneration in SOD1^G93A mice", "setting": "SOD1^G93A mice; intraperitoneal digoxin compared to vehicle", "result": "protected motor neurons from degeneration; also recorded: significantly increases the number of motor neurons"}, {"measurement": "non-cell autonomous cell death and dendrite abnormalities induced by SOD1^G93A astrocytes (FIG. 5)", "setting": "[1]", "result": "neuroprotective"}, {"measurement": "survival or morphology of motor neurons co-cultured with control (non-transgenic) astrocytes", "setting": "[1]", "result": "did not alter survival or morphology of motor neurons; also recorded: did not alter motor neuron survival or morphology"}, {"measurement": "impairment of dendrite morphology in motor neurons induced by SOD1^G93A astrocytes", "setting": "[1]", "result": "prevented impairment of dendrite morphology"}, {"measurement": "motor neuron cell death induced by SOD1^G93A astrocytes", "setting": "[1]", "result": 19, "unit": "%"}]}, {"substance": "ouabain", "values": [{"measurement": "non-cell autonomous cell death and dendrite abnormalities induced by SOD1^G93A astrocytes (FIG. 5)", "setting": "[1]", "result": "neuroprotective"}, {"measurement": "survival or morphology of motor neurons co-cultured with control (non-transgenic) astrocytes", "setting": "[1]", "result": "did not alter survival or morphology of motor neurons; also recorded: did not alter motor neuron survival or morphology"}, {"measurement": "impairment of dendrite morphology in motor neurons induced by SOD1^G93A astrocytes", "setting": "[1]", "result": "prevented impairment of dendrite morphology"}, {"measurement": "motor neuron cell death induced by SOD1^G93A astrocytes", "setting": "[1]", "result": 22, "unit": "%"}]}]}
